{"source": "patent US20130302470A1", "about": "“L-amino-acid-containing feed additive in the form of fermentation-broth-based granules, and processes for its preparation” (EVONIK INDUSTRIES AG, priority 2012, published 2013)", "key": {"[1]": {"experiment": "Hydrothermal stability, Experiment 9.1: extruded aquafeed (lysine recovery)", "type": "physicochemical", "text": "(§1) So as to be able to assess what is known as the hydrothermal stability of the additives, and to compare them with each other, the production processes for producing pelleted and extruded aquafeed was reproduced on a small scale. In each case two feed blends which differ only in respect of the L-lysine additive were employed, mixture A being supplemented with 0.50% granular feed additive according to the present invention and mixture B with 0.32% Lys×HCl, which corresponded in each case to identical lysine base concentrations. The granular feed additive according to the invention contained 50.7% by weight of lysine in the form of lysine sulphate and 10% by weight of biomass.\nThe process parameters, such as, for example, residence time, temperature or water content, were set at values which are typically used in practice. […] The hydrothermal stabilities of the test additives upon processing in the processes in question can be assessed relative to one another via the recovery rates. […]\nThe hydrothermal stability of the granules according to the present invention was compared with the hydrothermal stability of Lys×HCl. The hydrothermal stability of the additives for extruded shrimp/prawn feed was examined and assessed during the entire respective process. […]\nIn the amino acid determination, the supplemented amino acid lysine was determined. […]"}, "rainbow trout": {"test_system": "rainbow trout", "settings": "aquafeed with different lysine concentrations, FIG. 8; cited from earlier work"}, "[2]": {"experiment": "Hydrothermal stability, Experiment 9.2: pelleted aquafeed (lysine recovery)", "type": "physicochemical", "settings": "pelleting process", "text": "as §1\nThe process parameters, such as, for example, residence time, temperature or water content, were set at values which are typically used in practice. During the experiments, samples of the feed blend were taken after the respective individual process steps and subjected to extensive amino acid analysis. The hydrothermal stabilities of the test additives upon processing in the processes in question can be assessed relative to one another via the recovery rates.\nThe feed blends corresponded to representative state-of-the-art formulas. […]\nIn the amino acid determination, the supplemented amino acid lysine was determined. […] Thereafter, the amino acids were subjected to photometric quantitation at 570 nm. […]"}}}
{"smiles": "Cl.NCCCC[C@H](N)C(=O)O", "note": "[lysine HCl, L-lysine monohydrochloride]", "values": [{"measurement": "Lysine lost during the processing to give shrimp/prawn feed", "setting": "[1]; extrusion process", "result": 8.6, "unit": "%"}, {"measurement": "Stability of the lysine in the shrimp/prawn feed production process (comparison)", "setting": "[1]; extrusion, lysine sulphate granules versus lysine HCl", "result": "markedly more unstable"}, {"measurement": "Effect of the nature of the lysine source on the weight increase of trout", "setting": "rainbow trout", "result": "no effect on the weight increase"}, {"measurement": "Lysine loss upon pelleting", "setting": "[2]", "result": "approximately 3.3%"}]}
